From article PMC10313671, “Accelerating the prediction and discovery of peptide hydrogels with human-in-the-loop” (Nature Communications, 2023)
Where a SMILES comes first, the peptide text is derived from it.

Test: Peptide hydrogel formation, vial-inverting method
Assay type: physicochemical
Parameters: key to EXP / GELATION: 0: no hydrogel; 1: hydrogel
Conditions: 30 mM peptide in ultrapure water; pH adjusted to 6.5-8.5 with 1 N NaOH, ultrasonication, standing 48 h; vial-inverting method; concentration raised 30/60/90/120 mM until gelation
Procedure, shortened: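 Gelation judged by vial inversion, a non-flowing self-supporting sample counting as hydrogel, after 48 h standing. Peptide in water at 30 mM first, escalating to 60, 90 and 120 mM if no gel; pH set to 6.5–8.5 by stepwise 1 N NaOH, each step sonicated briefly.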

Structure (SMILES) | State
CSCC[C@H](NC(=O)[C@H](CCSC)NC(=O)[C@H](Cc1ccccc1)NC(=O)[C@@H](N)Cc1c[nH]c2ccccc12)C(=O)O [WFMM] (H-WFMM-OH) | gel
CC[C@H](C)[C@H](NC(=O)[C@H](CC(C)C)NC(=O)[C@@H](NC(=O)[C@@H](N)CC(C)C)C(C)C)C(=O)O [LVLI] (H-LVLI-OH) | gel
N[C@@H](Cc1ccccc1)C(=O)N[C@@H](Cc1ccccc1)C(=O)N[C@@H](Cc1ccccc1)C(=O)N[C@@H](Cc1ccccc1)C(=O)O [FFFF] (H-FFFF-OH) | gel
CC(C)C[C@H](NC(=O)[C@H](C)NC(=O)[C@@H](N)Cc1c[nH]c2ccccc12)C(=O)N[C@@H](Cc1c[nH]c2ccccc12)C(=O)O [WALW] (H-WALW-OH) | gel
CC[C@H](C)[C@H](NC(=O)[C@@H]1CCCN1)C(=O)N[C@@H](Cc1ccccc1)C(=O)N[C@@H](Cc1ccc(O)cc1)C(=O)O [PIFY] (H-PIFY-OH) | gel
CC(C)C[C@H](NC(=O)[C@H](Cc1c[nH]cn1)NC(=O)[C@@H](N)Cc1ccccc1)C(=O)N[C@@H](Cc1ccccc1)C(=O)O [FHLF] (H-FHLF-OH) | gel
C[C@@H](O)[C@H](NC(=O)[C@@H](N)CS)C(=O)N[C@@H](Cc1ccc(O)cc1)C(=O)N[C@@H](Cc1ccccc1)C(=O)O [CTYF] (H-CTYF-OH) | gel

Same assay, conditions: 60 mM peptide in ultrapure water; pH 6.5-8.5 (1 N NaOH), ultrasonication, standing 48 h; vial-inverting method; no gel at 30 mM

Structure (SMILES) | State
CSCC[C@H](N)C(=O)N[C@H](C(=O)N[C@@H](Cc1ccccc1)C(=O)N1CCC[C@H]1C(=O)O)C(C)C [MVFP] (H-MVFP-OH) | gel
NCCCC[C@H](NC(=O)[C@@H](N)Cc1ccccc1)C(=O)N[C@@H](Cc1ccccc1)C(=O)N[C@@H](Cc1ccccc1)C(=O)O [FKFF] (H-FKFF-OH) | gel
CC(C)C[C@H](NC(=O)[C@@H](NC(=O)CN)C(C)C)C(=O)N[C@@H](Cc1ccccc1)C(=O)O [GVLF] (H-GVLF-OH) | gel
NCCCC[C@H](NC(=O)[C@@H](N)Cc1ccccc1)C(=O)N[C@@H](Cc1ccccc1)C(=O)N[C@@H](Cc1c[nH]c2ccccc12)C(=O)O [FKFW] (H-FKFW-OH) | gel

Same assay, conditions: 90 mM peptide in ultrapure water; pH 6.5-8.5 (1 N NaOH), ultrasonication, standing 48 h; vial-inverting method; no gel at lower concentrations

Structure (SMILES) | State
CC(C)C[C@H](NC(=O)[C@H](CC(C)C)NC(=O)[C@@H](N)Cc1c[nH]cn1)C(=O)N[C@@H](Cc1ccccc1)C(=O)O [HLLF] (H-HLLF-OH) | gel

Same assay, conditions: 120 mM peptide (highest tested) in ultrapure water; pH 6.5-8.5 (1 N NaOH), ultrasonication, standing 48 h; vial-inverting method; precipitate, sol, suspension = no gel

Structure (SMILES) | State
CC[C@H](C)[C@H](NC(=O)[C@@H](NC(=O)[C@@H](N)CC(C)C)C(C)C)C(=O)N[C@@H](Cc1ccc(O)cc1)C(=O)O [LVIY] (H-LVIY-OH) | gel

Same assay, conditions: concentration at which the state was recorded: lowest of 30, 60, 90, 120 mM that gave a gel; 120 mM for non-gelating peptides

Structure (SMILES) | Concentration
CSCC[C@H](N)C(=O)N[C@H](C(=O)N[C@@H](Cc1ccccc1)C(=O)N1CCC[C@H]1C(=O)O)C(C)C [MVFP] (H-MVFP-OH) | 60000 µM
CC[C@H](C)[C@H](NC(=O)[C@@H](NC(=O)[C@@H](N)CC(C)C)C(C)C)C(=O)N[C@@H](Cc1ccc(O)cc1)C(=O)O [LVIY] (H-LVIY-OH) | 120000 µM
CSCC[C@H](NC(=O)[C@H](CCSC)NC(=O)[C@H](Cc1ccccc1)NC(=O)[C@@H](N)Cc1c[nH]c2ccccc12)C(=O)O [WFMM] (H-WFMM-OH) | 30000 µM
CC[C@H](C)[C@H](NC(=O)[C@H](CC(C)C)NC(=O)[C@@H](NC(=O)[C@@H](N)CC(C)C)C(C)C)C(=O)O [LVLI] (H-LVLI-OH) | 30000 µM
N[C@@H](Cc1ccccc1)C(=O)N[C@@H](Cc1ccccc1)C(=O)N[C@@H](Cc1ccccc1)C(=O)N[C@@H](Cc1ccccc1)C(=O)O [FFFF] (H-FFFF-OH) | 30000 µM
NCCCC[C@H](NC(=O)[C@@H](N)Cc1ccccc1)C(=O)N[C@@H](Cc1ccccc1)C(=O)N[C@@H](Cc1ccccc1)C(=O)O [FKFF] (H-FKFF-OH) | 60000 µM
CC(C)C[C@H](NC(=O)[C@H](C)NC(=O)[C@@H](N)Cc1c[nH]c2ccccc12)C(=O)N[C@@H](Cc1c[nH]c2ccccc12)C(=O)O [WALW] (H-WALW-OH) | 30000 µM
CC[C@H](C)[C@H](NC(=O)[C@@H]1CCCN1)C(=O)N[C@@H](Cc1ccccc1)C(=O)N[C@@H](Cc1ccc(O)cc1)C(=O)O [PIFY] (H-PIFY-OH) | 30000 µM
CC(C)C[C@H](NC(=O)[C@H](Cc1c[nH]cn1)NC(=O)[C@@H](N)Cc1ccccc1)C(=O)N[C@@H](Cc1ccccc1)C(=O)O [FHLF] (H-FHLF-OH) | 30000 µM
CC(C)C[C@H](NC(=O)[C@H](CC(C)C)NC(=O)[C@@H](N)Cc1c[nH]cn1)C(=O)N[C@@H](Cc1ccccc1)C(=O)O [HLLF] (H-HLLF-OH) | 90000 µM
CC(C)C[C@H](NC(=O)[C@@H](NC(=O)CN)C(C)C)C(=O)N[C@@H](Cc1ccccc1)C(=O)O [GVLF] (H-GVLF-OH) | 60000 µM
NCCCC[C@H](NC(=O)[C@@H](N)Cc1ccccc1)C(=O)N[C@@H](Cc1ccccc1)C(=O)N[C@@H](Cc1c[nH]c2ccccc12)C(=O)O [FKFW] (H-FKFW-OH) | 60000 µM
C[C@@H](O)[C@H](NC(=O)[C@@H](N)CS)C(=O)N[C@@H](Cc1ccc(O)cc1)C(=O)N[C@@H](Cc1ccccc1)C(=O)O [CTYF] (H-CTYF-OH) | 30000 µM

Same assay, conditions: peptide concentration 30 mM; vial-inverting method; 1 = hydrogel, 0 = no hydrogel

Structure (SMILES) | GELATION
CSCC[C@H](NC(=O)[C@H](CCSC)NC(=O)[C@H](Cc1ccccc1)NC(=O)[C@@H](N)Cc1c[nH]c2ccccc12)C(=O)O [WFMM] (H-WFMM-OH) | 1
CC[C@H](C)[C@H](NC(=O)[C@H](CC(C)C)NC(=O)[C@@H](NC(=O)[C@@H](N)CC(C)C)C(C)C)C(=O)O [LVLI] (H-LVLI-OH) | 1
N[C@@H](Cc1ccccc1)C(=O)N[C@@H](Cc1ccccc1)C(=O)N[C@@H](Cc1ccccc1)C(=O)N[C@@H](Cc1ccccc1)C(=O)O [FFFF] (H-FFFF-OH) | 1
CC[C@H](C)[C@H](NC(=O)[C@@H]1CCCN1)C(=O)N[C@@H](Cc1ccccc1)C(=O)N[C@@H](Cc1ccc(O)cc1)C(=O)O [PIFY] (H-PIFY-OH) | 1
CC(C)C[C@H](NC(=O)[C@H](Cc1c[nH]cn1)NC(=O)[C@@H](N)Cc1ccccc1)C(=O)N[C@@H](Cc1ccccc1)C(=O)O [FHLF] (H-FHLF-OH) | 1
C[C@@H](O)[C@H](NC(=O)[C@@H](N)CS)C(=O)N[C@@H](Cc1ccc(O)cc1)C(=O)N[C@@H](Cc1ccccc1)C(=O)O [CTYF] (H-CTYF-OH) | 1

Same assay, conditions: peptide concentration 60 mM; vial-inverting method; 1 = hydrogel, 0 = no hydrogel

Structure (SMILES) | GELATION
CSCC[C@H](N)C(=O)N[C@H](C(=O)N[C@@H](Cc1ccccc1)C(=O)N1CCC[C@H]1C(=O)O)C(C)C [MVFP] (H-MVFP-OH) | 1
NCCCC[C@H](NC(=O)[C@@H](N)Cc1ccccc1)C(=O)N[C@@H](Cc1ccccc1)C(=O)N[C@@H](Cc1ccccc1)C(=O)O [FKFF] (H-FKFF-OH) | 1
CC(C)C[C@H](NC(=O)[C@@H](NC(=O)CN)C(C)C)C(=O)N[C@@H](Cc1ccccc1)C(=O)O [GVLF] (H-GVLF-OH) | 1
NCCCC[C@H](NC(=O)[C@@H](N)Cc1ccccc1)C(=O)N[C@@H](Cc1ccccc1)C(=O)N[C@@H](Cc1c[nH]c2ccccc12)C(=O)O [FKFW] (H-FKFW-OH) | 1

Same assay, conditions: peptide concentration 90 mM; vial-inverting method; 1 = hydrogel, 0 = no hydrogel

Structure (SMILES) | GELATION
CC(C)C[C@H](NC(=O)[C@H](CC(C)C)NC(=O)[C@@H](N)Cc1c[nH]cn1)C(=O)N[C@@H](Cc1ccccc1)C(=O)O [HLLF] (H-HLLF-OH) | 1

Same assay, conditions: peptide concentration 120 mM; vial-inverting method; 1 = hydrogel, 0 = no hydrogel

Structure (SMILES) | GELATION
CC[C@H](C)[C@H](NC(=O)[C@@H](NC(=O)[C@@H](N)CC(C)C)C(C)C)C(=O)N[C@@H](Cc1ccc(O)cc1)C(=O)O [LVIY] (H-LVIY-OH) | 1
CC(C)C[C@H](NC(=O)[C@H](C)NC(=O)[C@@H](N)Cc1c[nH]c2ccccc12)C(=O)N[C@@H](Cc1c[nH]c2ccccc12)C(=O)O [WALW] (H-WALW-OH) | 1

Test: Transmission electron microscope (negative staining) of peptide assemblies
Conditions: TEM, negative staining with uranyl acetate, 120 kV; line of the table gives 30 mM
Experimental: We used the negative staining technique to observe the morphologies formed by peptides. A micropipette was used to load 10 μL of sample solution to a carbon-coated copper grid, and we used a piece of filter paper to remove the excess solution. After rinsing the grid with the deionized water, we used uranyl acetate to stain the sample for 1 minute and then rinsed the grid with deionized water again.

Structure (SMILES) | Morphology
CSCC[C@H](NC(=O)[C@H](CCSC)NC(=O)[C@H](Cc1ccccc1)NC(=O)[C@@H](N)Cc1c[nH]c2ccccc12)C(=O)O [WFMM] (H-WFMM-OH) | fibre
CC[C@H](C)[C@H](NC(=O)[C@H](CC(C)C)NC(=O)[C@@H](NC(=O)[C@@H](N)CC(C)C)C(C)C)C(=O)O [LVLI] (H-LVLI-OH) | sheet
N[C@@H](Cc1ccccc1)C(=O)N[C@@H](Cc1ccccc1)C(=O)N[C@@H](Cc1ccccc1)C(=O)N[C@@H](Cc1ccccc1)C(=O)O [FFFF] (H-FFFF-OH) | sheet
CC(C)C[C@H](NC(=O)[C@H](C)NC(=O)[C@@H](N)Cc1c[nH]c2ccccc12)C(=O)N[C@@H](Cc1c[nH]c2ccccc12)C(=O)O [WALW] (H-WALW-OH) | fibre
CC[C@H](C)[C@H](NC(=O)[C@@H]1CCCN1)C(=O)N[C@@H](Cc1ccccc1)C(=O)N[C@@H](Cc1ccc(O)cc1)C(=O)O [PIFY] (H-PIFY-OH) | sphere
CC(C)C[C@H](NC(=O)[C@H](Cc1c[nH]cn1)NC(=O)[C@@H](N)Cc1ccccc1)C(=O)N[C@@H](Cc1ccccc1)C(=O)O [FHLF] (H-FHLF-OH) | sheet
C[C@@H](O)[C@H](NC(=O)[C@@H](N)CS)C(=O)N[C@@H](Cc1ccc(O)cc1)C(=O)N[C@@H](Cc1ccccc1)C(=O)O [CTYF] (H-CTYF-OH) | fibre

Same assay, conditions: TEM, negative staining with uranyl acetate, 120 kV; line of the table gives 60 mM

Structure (SMILES) | Morphology
CSCC[C@H](N)C(=O)N[C@H](C(=O)N[C@@H](Cc1ccccc1)C(=O)N1CCC[C@H]1C(=O)O)C(C)C [MVFP] (H-MVFP-OH) | fibre
NCCCC[C@H](NC(=O)[C@@H](N)Cc1ccccc1)C(=O)N[C@@H](Cc1ccccc1)C(=O)N[C@@H](Cc1ccccc1)C(=O)O [FKFF] (H-FKFF-OH) | sheet
CC(C)C[C@H](NC(=O)[C@@H](NC(=O)CN)C(C)C)C(=O)N[C@@H](Cc1ccccc1)C(=O)O [GVLF] (H-GVLF-OH) | rod
NCCCC[C@H](NC(=O)[C@@H](N)Cc1ccccc1)C(=O)N[C@@H](Cc1ccccc1)C(=O)N[C@@H](Cc1c[nH]c2ccccc12)C(=O)O [FKFW] (H-FKFW-OH) | fibre

Same assay, conditions: TEM, negative staining with uranyl acetate, 120 kV; line of the table gives 90 mM

Structure (SMILES) | Morphology
CC(C)C[C@H](NC(=O)[C@H](CC(C)C)NC(=O)[C@@H](N)Cc1c[nH]cn1)C(=O)N[C@@H](Cc1ccccc1)C(=O)O [HLLF] (H-HLLF-OH) | sheet

Same assay, conditions: TEM, negative staining with uranyl acetate, 120 kV; line of the table gives 120 mM

Structure (SMILES) | Morphology
CC[C@H](C)[C@H](NC(=O)[C@@H](NC(=O)[C@@H](N)CC(C)C)C(C)C)C(=O)N[C@@H](Cc1ccc(O)cc1)C(=O)O [LVIY] (H-LVIY-OH) | sheet
